Assay results published in patent publication US4471131A, “Novel silyl esters of N-phosphonomethylglycine” (Monsanto Company, priority 1983, dated 1984).

Tests used:
Experiment in all cases: post-emergence herbicidal activity, greenhouse
Assay type in all cases: in vivo
Barnyardgrass = system: Barnyardgrass
In short: (§1)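 Plants grown two to three weeks in greenhouse soil pans were atomizer-sprayed with test chemical in spray containing about 0.4% emulsifier, at the listed rates. Injury relative to unsprayed controls observed at approximately two and four weeks after treatment.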

Canada Thistle = details: Table II
In short: as §1

Cocklebur = system: Cocklebur
In short: as §1

Common Lambsquarters = system: Common Lambsquarters
In short: as §1

Downy Brome = system: Downy Brome
In short: as §1

Johnsongrass = details: Table II
In short: as §1

Panicum Spp = details: Table III
In short: as §1

Velvetleaf = system: Velvetleaf
In short: as §1

Wild Buckwheat = details: Table III
In short: as §1

[1] = Table II, 2 WAT, 5.6 kg/h, formulated in anhydrous tetrahydrofuran
[2] = Table II, 2 WAT, 11.2 kg/h, formulated in anhydrous tetrahydrofuran
[3] = Table II, 4 WAT, 5.6 kg/h, formulated in anhydrous tetrahydrofuran
[4] = Table II, 4 WAT, 11.2 kg/h, formulated in anhydrous tetrahydrofuran
[5] = Table III, 2 WAT, 1.1 kg/h, formulated in anhydrous tetrahydrofuran
[6] = Table III, 2 WAT, 5.6 kg/h, formulated in anhydrous tetrahydrofuran
[7] = Table III, 2 WAT, .28 kg/h, formulated in anhydrous tetrahydrofuran
[8] = Table III, 4 WAT, 1.1 kg/h, formulated in anhydrous tetrahydrofuran
[9] = Table III, 4 WAT, 5.6 kg/h, formulated in anhydrous tetrahydrofuran
[10] = Table III, 4 WAT, .28 kg/h, formulated in anhydrous tetrahydrofuran
[11] = 2 WAT, 5.6 kg/h, formulated in anhydrous tetrahydrofuran
[12] = 2 WAT, 11.2 kg/h, formulated in anhydrous tetrahydrofuran
[13] = 4 WAT, 5.6 kg/h, formulated in anhydrous tetrahydrofuran
[14] = 4 WAT, 11.2 kg/h, formulated in anhydrous tetrahydrofuran
[15] = 2 WAT, 1.1 kg/h, formulated in anhydrous tetrahydrofuran
[16] = 2 WAT, .28 kg/h, formulated in anhydrous tetrahydrofuran
[17] = 4 WAT, 1.1 kg/h, formulated in anhydrous tetrahydrofuran
[18] = 4 WAT, .28 kg/h, formulated in anhydrous tetrahydrofuran

CCCCOC(=O)CNCP(=O)(O)O[Si](c1ccccc1)(c1ccccc1)C(C)(C)C [Ex. 6, Glycine, N--((([(1,1-Dimethylethyl)Diphenylsilyl]Oxy)Hydroxyphosphinyl)methyl)-Butyl Ester]
1 (25-49% inhibition): Plant Response Index (K) (Barnyardgrass; Table II, 2 WAT, 5.6 kg/h) | Plant Response Index (K) (Barnyardgrass; [1]) | Plant Response Index (K) (Barnyardgrass; [2]) | Plant Response Index (K) (Barnyardgrass; [4]) | Plant Response Index (A) (Canada Thistle; 4 WAT, 5.6 kg/h) | Plant Response Index (A) (Canada Thistle; [14]) | Plant Response Index (B) (Cocklebur; Table II, 2 WAT, 5.6 kg/h) | Plant Response Index (B) (Cocklebur; [1]) | Plant Response Index (B) (Cocklebur; [2]) | Plant Response Index (B) (Cocklebur; Table II, 4 WAT, 5.6 kg/h) | Plant Response Index (B) (Cocklebur; [3]) | Plant Response Index (B) (Cocklebur; [5]) | Plant Response Index (B) (Cocklebur; [7]) | Plant Response Index (B) (Cocklebur; [8]) | Plant Response Index (B) (Cocklebur; [10]) | Plant Response Index (E) (Common Lambsquarters; [1]) | Plant Response Index (E) (Common Lambsquarters; [7]) | Plant Response Index (E) (Common Lambsquarters; [10]) | Plant Response Index (J) (Downy Brome; Table II, 4 WAT, 11.2 kg/h) | Plant Response Index (J) (Downy Brome; Table III, 2 WAT, 1.1 kg/h) | Plant Response Index (J) (Downy Brome; [5]) | Plant Response Index (J) (Downy Brome; Table III, 2 WAT, 5.6 kg/h) | Plant Response Index (J) (Downy Brome; [6]) | Plant Response Index (J) (Downy Brome; Table III, 2 WAT, .28 kg/h) | Plant Response Index (J) (Downy Brome; Table III, 4 WAT, 1.1 kg/h) | Plant Response Index (J) (Downy Brome; [8]) | Plant Response Index (I) (Johnsongrass; 2 WAT, 11.2 kg/h) | Plant Response Index (I) (Johnsongrass; [13]) | Plant Response Index (I) (Johnsongrass; [14]) | Plant Response Index (C) (Velvetleaf; Table II, 4 WAT, 11.2 kg/h) | Plant Response Index (C) (Velvetleaf; [4]) | Plant Response Index (C) (Velvetleaf; Table III, 2 WAT, 1.1 kg/h) | Plant Response Index (C) (Velvetleaf; [5]) | Plant Response Index (C) (Velvetleaf; Table III, 4 WAT, 1.1 kg/h) | Plant Response Index (C) (Velvetleaf; [8]) | Plant Response Index (Q) (Wild Buckwheat; 2 WAT, .28 kg/h) | Plant Response Index (Q) (Wild Buckwheat; [16]) | Plant Response Index (Q) (Wild Buckwheat; 4 WAT, 1.1 kg/h) | Plant Response Index (Q) (Wild Buckwheat; [18])
0 (0-24% inhibition): Plant Response Index (K) (Barnyardgrass; [7]) | Plant Response Index (K) (Barnyardgrass; [10]) | Plant Response Index (A) (Canada Thistle; 2 WAT, 5.6 kg/h) | Plant Response Index (A) (Canada Thistle; [11]) | Plant Response Index (A) (Canada Thistle; [12]) | Plant Response Index (A) (Canada Thistle; [13]) | Plant Response Index (B) (Cocklebur; Table III, 2 WAT, .28 kg/h) | Plant Response Index (J) (Downy Brome; Table II, 2 WAT, 5.6 kg/h) | Plant Response Index (J) (Downy Brome; [1]) | Plant Response Index (J) (Downy Brome; Table II, 2 WAT, 11.2 kg/h) | Plant Response Index (J) (Downy Brome; [2]) | Plant Response Index (J) (Downy Brome; Table II, 4 WAT, 5.6 kg/h) | Plant Response Index (J) (Downy Brome; [3]) | Plant Response Index (J) (Downy Brome; [4]) | Plant Response Index (J) (Downy Brome; [7]) | Plant Response Index (J) (Downy Brome; [10]) | Plant Response Index (I) (Johnsongrass; 2 WAT, 5.6 kg/h) | Plant Response Index (I) (Johnsongrass; [11]) | Plant Response Index (I) (Johnsongrass; [12]) | Plant Response Index (I) (Johnsongrass; 4 WAT, 11.2 kg/h) | Plant Response Index (S) (Panicum Spp; [16]) | Plant Response Index (S) (Panicum Spp; [18]) | Plant Response Index (C) (Velvetleaf; Table II, 2 WAT, 5.6 kg/h) | Plant Response Index (C) (Velvetleaf; [1]) | Plant Response Index (C) (Velvetleaf; [2]) | Plant Response Index (C) (Velvetleaf; Table II, 4 WAT, 5.6 kg/h) | Plant Response Index (C) (Velvetleaf; [3]) | Plant Response Index (C) (Velvetleaf; Table III, 2 WAT, .28 kg/h) | Plant Response Index (C) (Velvetleaf; [7]) | Plant Response Index (C) (Velvetleaf; [10])
2 (50-74% inhibition): Plant Response Index (K) (Barnyardgrass; Table II, 2 WAT, 11.2 kg/h) | Plant Response Index (K) (Barnyardgrass; Table II, 4 WAT, 5.6 kg/h) | Plant Response Index (K) (Barnyardgrass; [3]) | Plant Response Index (K) (Barnyardgrass; Table III, 2 WAT, 1.1 kg/h) | Plant Response Index (K) (Barnyardgrass; [5]) | Plant Response Index (K) (Barnyardgrass; [6]) | Plant Response Index (K) (Barnyardgrass; Table III, 2 WAT, .28 kg/h) | Plant Response Index (K) (Barnyardgrass; Table III, 4 WAT, 1.1 kg/h) | Plant Response Index (K) (Barnyardgrass; [8]) | Plant Response Index (K) (Barnyardgrass; [9]) | Plant Response Index (B) (Cocklebur; Table II, 2 WAT, 11.2 kg/h) | Plant Response Index (B) (Cocklebur; Table II, 4 WAT, 11.2 kg/h) | Plant Response Index (B) (Cocklebur; [4]) | Plant Response Index (B) (Cocklebur; Table III, 2 WAT, 1.1 kg/h) | Plant Response Index (B) (Cocklebur; [6]) | Plant Response Index (B) (Cocklebur; Table III, 4 WAT, 1.1 kg/h) | Plant Response Index (B) (Cocklebur; [9]) | Plant Response Index (E) (Common Lambsquarters; Table II, 2 WAT, 5.6 kg/h) | Plant Response Index (E) (Common Lambsquarters; Table II, 4 WAT, 5.6 kg/h) | Plant Response Index (J) (Downy Brome; [9]) | Plant Response Index (I) (Johnsongrass; 4 WAT, 5.6 kg/h) | Plant Response Index (S) (Panicum Spp; [15]) | Plant Response Index (S) (Panicum Spp; [11]) | Plant Response Index (S) (Panicum Spp; 2 WAT, .28 kg/h) | Plant Response Index (S) (Panicum Spp; [17]) | Plant Response Index (C) (Velvetleaf; Table II, 2 WAT, 11.2 kg/h) | Plant Response Index (C) (Velvetleaf; Table III, 2 WAT, 5.6 kg/h) | Plant Response Index (C) (Velvetleaf; [6]) | Plant Response Index (C) (Velvetleaf; Table III, 4 WAT, 5.6 kg/h) | Plant Response Index (C) (Velvetleaf; [9]) | Plant Response Index (Q) (Wild Buckwheat; 2 WAT, 1.1 kg/h) | Plant Response Index (Q) (Wild Buckwheat; [15]) | Plant Response Index (Q) (Wild Buckwheat; 2 WAT, 5.6 kg/h) | Plant Response Index (Q) (Wild Buckwheat; [11]) | Plant Response Index (Q) (Wild Buckwheat; [17]) | Plant Response Index (Q) (Wild Buckwheat; [13])
4 (100% inhibition): Plant Response Index (A) (Canada Thistle; 4 WAT, 11.2 kg/h) | Plant Response Index (E) (Common Lambsquarters; Table II, 4 WAT, 11.2 kg/h) | Plant Response Index (E) (Common Lambsquarters; [4]) | Plant Response Index (E) (Common Lambsquarters; [8]) | Plant Response Index (E) (Common Lambsquarters; [9]) | Plant Response Index (S) (Panicum Spp; 2 WAT, 5.6 kg/h) | Plant Response Index (S) (Panicum Spp; 4 WAT, 5.6 kg/h)
3 (75-99% inhibition): Plant Response Index (K) (Barnyardgrass; Table II, 4 WAT, 11.2 kg/h) | Plant Response Index (K) (Barnyardgrass; Table III, 2 WAT, 5.6 kg/h) | Plant Response Index (K) (Barnyardgrass; Table III, 4 WAT, 5.6 kg/h) | Plant Response Index (A) (Canada Thistle; 2 WAT, 11.2 kg/h) | Plant Response Index (B) (Cocklebur; Table III, 2 WAT, 5.6 kg/h) | Plant Response Index (B) (Cocklebur; Table III, 4 WAT, 5.6 kg/h) | Plant Response Index (E) (Common Lambsquarters; Table II, 2 WAT, 11.2 kg/h) | Plant Response Index (E) (Common Lambsquarters; [2]) | Plant Response Index (E) (Common Lambsquarters; [3]) | Plant Response Index (E) (Common Lambsquarters; Table III, 2 WAT, 1.1 kg/h) | Plant Response Index (E) (Common Lambsquarters; [5]) | Plant Response Index (E) (Common Lambsquarters; Table III, 2 WAT, 5.6 kg/h) | Plant Response Index (E) (Common Lambsquarters; [6]) | Plant Response Index (E) (Common Lambsquarters; Table III, 2 WAT, .28 kg/h) | Plant Response Index (E) (Common Lambsquarters; Table III, 4 WAT, 1.1 kg/h) | Plant Response Index (E) (Common Lambsquarters; Table III, 4 WAT, 5.6 kg/h) | Plant Response Index (J) (Downy Brome; Table III, 4 WAT, 5.6 kg/h) | Plant Response Index (S) (Panicum Spp; 2 WAT, 1.1 kg/h) | Plant Response Index (S) (Panicum Spp; 4 WAT, 1.1 kg/h) | Plant Response Index (S) (Panicum Spp; [13]) | Plant Response Index (Q) (Wild Buckwheat; 4 WAT, 5.6 kg/h)
